Key:
217 kinases = conditions: tested at 10 µM; cited from earlier work
90 non-kinase targets = conditions: tested at 10 µM; cited from earlier work
C32 cells = assay: ATPLite growth inhibition 72 h, dose matrix (Example 1); assay type: cell-based; conditions: single agents, or Compound (1) with Compound (6) present at 1.1 uM; 72 h (FIG. 2)
Method: (§1) The combinations of HDM2-p53 inhibitor and MEK inhibitor were examined in a panel of twenty cell lines (Table 2).
(§2) A 36-point combination dose response matrix over a treatment time of seventy-two hours was used. The method by which this screen was performed is described below.
(§3) Cells were thawed from a liquid nitrogen preserved state. Once cells had been expanded and divided at their expected doubling times, cells were seeded in complete media (Table 3) at 100 cells per well in black 1536 tissue culture treated plates. Assay plates were centrifuged for 2 min at 335 x g, incubated at room temperature for 20 min, and incubated at 37° C for 24 hours before treatment.
(§4) ATP levels were used as a measure of cell number (cell growth). At the time of treatment, ATP levels were measured in an untreated set of assay plates (Tzero plates). ATP levels were measured by adding ATPLite (Perkin Elmer) according to manufacturer's instructions. The Tzero plates were read using ultra-sensitive luminescence on Envision Plate Readers. […]
(§5) Growth Inhibition (GI) was used as a measure of cell viability. As described above, ATP levels were measured at the time of dosing (T0) and after 72 hours (T72). The effect of vehicle alone on cell viability was determined by measuring ATP levels at T0 and 72 hours after treatment of cells with vehicle alone (T72). […]

MV4-11 cells = assay: as above; assay type: cell-based; conditions: single agents, or Compound (1) with Compound (6) present at 3.3 uM; 72 h (FIG. 3)
Method: as §1, §2, §3, §4, §5

[1] = system: panel of twenty cell lines; assay: HDM2-p53 inhibitor / MEK inhibitor combination screen, ATPLite growth inhibition 72 h, Loewe synergy (Example 1); assay type: cell-based; conditions: at an FDR < 5% in some cell lines (FIG. 1)
Method: as §1, §2, §3
ATP levels were used as a measure of cell number (cell growth). At the time of treatment, ATP levels were measured in an untreated set of assay plates (Tzero plates). ATP levels were measured by adding ATPLite (Perkin Elmer) according to manufacturer's instructions. The Tzero plates were read using ultra-sensitive luminescence on Envision Plate Readers. Assay plates receiving treatment were incubated with compound for 72 h at 37° C with 5% CO2. After 72 h, plates were developed for endpoint analysis using ATPLite.
Assay plates were accepted for analysis if they passed the following quality control standards: relative luciferase values were consistent throughout the entire experiment, Z' factor scores were greater than 0.6, untreated/vehicle controls behaved consistently on the plate. The calculation for synergy score is provided below.
Growth Inhibition (GI) was used as a measure of cell viability. As described above, ATP levels were measured at the time of dosing (T0) and after 72 hours (T72). The effect of vehicle alone on cell viability was determined by measuring ATP levels at T0 and 72 hours after treatment of cells with vehicle alone (T72).
GI was calculated by applying the following test and equation: If T < V0 :100*(1-T-V0/V0) [formula] If T ≥ V0 :100*(1-T-V0/V-V0) [formula]
Where T is the signal measure for a test article, V is the vehicle-treated control measure, and V0 is the vehicle control measure at time zero. This formula is derived from the Growth Inhibition calculation used in the National Cancer Institute's NCI-60 high throughput screen, as described on the world wide web at dtp.nci.nih.gov/branches/btb/ivclsp.html. A GI reading of 0% represents no growth inhibition-that is, cells treated with compound had similar levels of ATP as cells treated with vehicle and measured at 72 hours. A GI of 100% represents complete growth inhibition-that is, cells treated with compound had similar levels of ATP as cells treated with vehicle and measured at T0. A GI of 100% where cell numbers have not increased during the treatment period is indicative of a cytostatic effect for compounds reaching a plateau at this effect level. A GI of 200% represents complete death of all cells in the culture well which is indicative of an apoptotic effect.
For each cell line, the dose-response curve was measured with each HDM2-p53 antagonist and each MEK inhibitor as single agents and in pair wise combinations. Using the potency values from the single agent dose-response curves, the compounds were assigned to different groups of similar potency. Multiple doses above and below the EC50 of a given HDM2-p53 antagonist or MEK inhibitor were measured.
In each well of a plate, ATP levels were measured by […] assay as described above. ATP levels are proportional to the number of remaining live cells. […]

SMILES	Loewe synergy with both Compound (1) and Compound (2) [1]	also measured
O=C(NC[C@H](O)CO)c1ccncc1Nc1ccc(I)cc1F [Compound (4), N-((S)-2,3-dihydroxypropyl)-3-(2-fluoro-4-iodo-phenylamino)isonicotinamide]		activity against 217 kinases (217 kinases): no activity; activity against 90 non-kinase targets (90 non-kinase targets): no activity
Cn1cnc2c(F)c(Nc3ccc(Br)cc3Cl)c(C(=O)NOCCO)cc21 [Compound (6)]	statistically significant Loewe synergy	effect on C32 cells (growth inhibition) (C32 cells): cytostasis; effect on MV4-11 cells (growth inhibition) (MV4-11 cells): cytostasis
O=C(NOCC(O)CO)c1ccc(F)c(F)c1Nc1ccc(I)cc1F (stereo not drawn) [Compound (7), N-(2,3-dihydroxy-propoxy)-3,4-difluoro-2-(2-fluoro-4-iodo-phenylamino)-benzamide]	statistically significant Loewe synergy	
Cc1cnc(Nc2ccc(F)cc2Cl)nc1-c1c[nH]c(C(=O)N[C@H](CO)c2cccc(Cl)c2)c1 [Compound (8), 4-[2-(2-chloro-4-fluorophenylamino)-5-methylpyrimidin-4-yl]-N-[1(S)-(3-chlorophenyl)-2-hydroxyethyl]-1H-pyrrole-2-carboxamide]	statistically significant Loewe synergy	
CNS(=O)(=O)Nc1nccc(Cc2c(C)c3ccc(Oc4ncccn4)cc3oc2=O)c1F [Compound (9), N-[3-fluoro-4-[4-methyl-2-oxo-7-(pyrimidin-2-yloxy)-2H-1-benzopyran-3-ylmethyl]pyridin-2-yl]-N'-methylsulfamide]	statistically significant Loewe synergy	
COc1cc2c(Nc3ccc(Oc4ccccc4)cc3)c(C#N)cnc2cc1OCCCN1CCOCC1 [Compound (10), 6-methoxy-7-[3-(4-morpholinyl)propoxy]-4-(4-phenoxyphenylamino)quinoline-3-carbonitrile]	statistically significant Loewe synergy	
